Reference: patent US6914045B2, “Glycopeptide antibiotics” (Wyeth Holdings Corporation, priority 2001, dated 2005)
≈ marks a conversion by molar mass, not a printed value. One block for each compound: values may come before it.

Legend:
Experiment in all cases: in vitro antibacterial evaluation, MIC by broth dilution
Format in all cases: cell-based
Escherichia coli = conditions: 18 hours at 35° C.
In short: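 MIC = lowest antibiotic concentration preventing visible growth; inoculum 5×10^5 CFU/mL; drug range 64-0.06 μg/mL; Muller-Hinton II […]; NCCLS M7-A2 guidance.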

Enterococcus sp. = conditions: broth dilution, 18 hours at 35° C.; for MIC Enterococcus faecalis (GC 2242): strain GC 2242; for MIC Enterococcus faecalis (GC 4552): strain GC 4552
In short: (§1)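 Inoculum 5×10^5 CFU/mL; concentrations 64 to 0.06 μg/mL; MIC defined as lowest inhibitory level. Conducted by broth dilution under NCCLS guidelines.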

Staphylococcus sp. = conditions: broth dilution, 18 hours at 35° C.
In short: as §1

Streptococcus sp. = conditions: broth dilution, 18 hours at 35° C.; for MIC Streptococcus agalactiae (GC 4564): strain GC 4564; for MIC Streptococcus pyogenes (ID-3187): strain ID-3187
In short: as §1

[1] = Enterococcus faecalis (ATCC 29212)
[2] = Enterococcus faecalis (GC 4553)
[3] = Enterococcus faecalis (GC 4554)

MIC Escherichia coli (ATCC 25922) (Escherichia coli): 64 µg/mL (≈ 45.8 µM)
MIC Escherichia coli (GC 4559) (Escherichia coli): >64 µg/mL
MIC Escherichia coli (GC 4560) (Escherichia coli): 4 µg/mL (≈ 2.86 µM)
MIC Enterococcus avium (GC 4558) (Enterococcus sp.; Enterococcus avium (GC 4558)): >64 µg/mL
MIC Enterococcus faecalis (ATCC 29212) (Enterococcus sp.; [1]): 64 µg/mL (≈ 45.8 µM)
MIC Enterococcus faecalis (GC 4553) (Enterococcus sp.; [2]): >64 µg/mL
MIC Enterococcus faecalis (GC 4554) (Enterococcus sp.; [3]): >64 µg/mL
MIC Enterococcus faecium (GC 2243) (Enterococcus sp.; Enterococcus faecium (GC 2243)): >64 µg/mL
MIC Enterococcus faecium (GC 4556) (Enterococcus sp.; Enterococcus faecium (GC 4556)): 64 µg/mL (≈ 45.8 µM)
MIC Enterococcus faecium (GC 4557) (Enterococcus sp.; Enterococcus faecium (GC 4557)): 32 µg/mL (≈ 22.9 µM)
MIC Enterococcus faecalis (ATCC 29212) (Enterococcus sp.; strain ATCC 29212): 64 µg/mL (≈ 45.8 µM)
MIC Enterococcus faecalis (GC 2242) (Enterococcus sp.): 64 µg/mL (≈ 45.8 µM)
MIC Enterococcus faecium (GC 2243) (Enterococcus sp.; strain GC 2243): >64 µg/mL
MIC Enterococcus faecalis (GC 4552) (Enterococcus sp.): >64 µg/mL
MIC Enterococcus faecalis (GC 4553) (Enterococcus sp.; strain GC 4553): >64 µg/mL
MIC Enterococcus faecalis (GC 4554) (Enterococcus sp.; strain GC 4554): >64 µg/mL
MIC Enterococcus faecium (GC 4556) (Enterococcus sp.; strain GC 4556): 64 µg/mL (≈ 45.8 µM)
MIC Enterococcus faecium (GC 4557) (Enterococcus sp.; strain GC 4557): 32 µg/mL (≈ 22.9 µM)
MIC Enterococcus avium (GC 4558) (Enterococcus sp.; strain GC 4558): >64 µg/mL
MIC Coagulase Negative Staphylococcus (GC 4547) (Staphylococcus sp.): 8 µg/mL (≈ 5.72 µM)
MIC Coagulase Negative Staphylococcus (GC 4548) (Staphylococcus sp.): 4 µg/mL (≈ 2.86 µM)
MIC Coagulase Negative Staphylococcus (GC 4549) (Staphylococcus sp.): 4 µg/mL (≈ 2.86 µM)
MIC Coagulase Negative Staphylococcus (GC 4551) (Staphylococcus sp.): 16 µg/mL (≈ 11.4 µM)
MIC Staphylococcus aureus (ATCC 29213) (Staphylococcus sp.): 16 µg/mL (≈ 11.4 µM)
MIC Staphylococcus aureus (GC 1131) (Staphylococcus sp.): 16 µg/mL (≈ 11.4 µM)
MIC Staphylococcus aureus (GC 4541) (Staphylococcus sp.): 16 µg/mL (≈ 11.4 µM)
MIC Staphylococcus aureus (GC 4542) (Staphylococcus sp.): 16 µg/mL (≈ 11.4 µM)
MIC Staphylococcus aureus (GC 4544) (Staphylococcus sp.): 8 µg/mL (≈ 5.72 µM)
MIC Staphylococcus aureus (GC 4545) (Staphylococcus sp.): 8 µg/mL (≈ 5.72 µM)
MIC Staphylococcus aureus-SMITH (GC 4543) (Staphylococcus sp.): 8 µg/mL (≈ 5.72 µM)
MIC Staphylococcus aureus (ATCC 29213) (Staphylococcus sp.; strain ATCC 29213): 16 µg/mL (≈ 11.4 µM)
MIC Staphylococcus aureus (GC 1131) (Staphylococcus sp.; strain GC 1131): 16 µg/mL (≈ 11.4 µM)
MIC Staphylococcus aureus (GC 4541) (Staphylococcus sp.; strain GC 4541): 16 µg/mL (≈ 11.4 µM)
MIC Staphylococcus aureus (GC 4542) (Staphylococcus sp.; strain GC 4542): 16 µg/mL (≈ 11.4 µM)
MIC Staphylococcus aureus (GC 4544) (Staphylococcus sp.; strain GC 4544): 8 µg/mL (≈ 5.72 µM)
MIC Staphylococcus aureus (GC 4545) (Staphylococcus sp.; strain GC 4545): 8 µg/mL (≈ 5.72 µM)
MIC Coagulase Negative Staphylococcus (GC 4547) (Staphylococcus sp.; strain GC 4547): 8 µg/mL (≈ 5.72 µM)
MIC Coagulase Negative Staphylococcus (GC 4548) (Staphylococcus sp.; strain GC 4548): 4 µg/mL (≈ 2.86 µM)
MIC Coagulase Negative Staphylococcus (GC 4549) (Staphylococcus sp.; strain GC 4549): 4 µg/mL (≈ 2.86 µM)
MIC Coagulase Negative Staphylococcus (GC 4551) (Staphylococcus sp.; strain GC 4551): 16 µg/mL (≈ 11.4 µM)
MIC Staphylococcus aureus-SMITH (GC 4543) (Staphylococcus sp.; strain SMITH GC 4543): 8 µg/mL (≈ 5.72 µM)
MIC Streptococcus agalactiae (GC 4564) (Streptococcus sp.): 8 µg/mL (≈ 5.72 µM)
MIC Streptococcus pyogenes (ID-3187) (Streptococcus sp.): 4 µg/mL (≈ 2.86 µM)
SMILES: CC(C)CC(=O)OC1C(OC2C(CO)OC(Oc3ccc(CC4NC(=O)C(C(C)c5cccc(F)c5)NC(=O)CNC(=O)C(CO)NC(=O)C(C(O)C5CNC(=N)N5C5OC(CO)C(O)C(O)C5O)NC(=O)C(C(O)C5CNC(=N)N5)NC4=O)cc3)C(O)C2O)OC(CO)C(O)C1O (stereo not drawn) [Example 264a, Cyclo[glycyl-3-fluoro-β-methylphenylalanyl-O-[4-O-[2-O-(3-methylbutanoyl)hexopyranosyl]-hexopyranosyl]tyrosyl-3-(2-iminoimidazolidin-4-yl)seryl-3-(3-hexopyranosyl-2-iminoimidazolidin-4-yl)serylseryl]]
MIC Staphylococcus haemolyticus (GC 4546) (Staphylococcus sp.): 8 µg/mL (≈ 5.72 µM)
MIC Staphylococcus haemolyticus (GC 4546) (Staphylococcus sp.; strain GC 4546): 8 µg/mL (≈ 5.72 µM)

MIC Escherichia coli (ATCC 25922) (Escherichia coli): 64 µg/mL (≈ 45.8 µM)
MIC Escherichia coli (GC 4559) (Escherichia coli): >64 µg/mL
MIC Escherichia coli (GC 4560) (Escherichia coli): 4 µg/mL (≈ 2.86 µM)
MIC Enterococcus avium (GC 4558) (Enterococcus sp.; Enterococcus avium (GC 4558)): 64 µg/mL (≈ 45.8 µM)
MIC Enterococcus faecalis (ATCC 29212) (Enterococcus sp.; [1]): 64 µg/mL (≈ 45.8 µM)
MIC Enterococcus faecalis (GC 4553) (Enterococcus sp.; [2]): 64 µg/mL (≈ 45.8 µM)
MIC Enterococcus faecalis (GC 4554) (Enterococcus sp.; [3]): 64 µg/mL (≈ 45.8 µM)
MIC Enterococcus faecium (GC 2243) (Enterococcus sp.; Enterococcus faecium (GC 2243)): 64 µg/mL (≈ 45.8 µM)
MIC Enterococcus faecium (GC 4556) (Enterococcus sp.; Enterococcus faecium (GC 4556)): 64 µg/mL (≈ 45.8 µM)
MIC Enterococcus faecium (GC 4557) (Enterococcus sp.; Enterococcus faecium (GC 4557)): 8 µg/mL (≈ 5.72 µM)
MIC Enterococcus faecalis (ATCC 29212) (Enterococcus sp.; strain ATCC 29212): 64 µg/mL (≈ 45.8 µM)
MIC Enterococcus faecalis (GC 2242) (Enterococcus sp.): 32 µg/mL (≈ 22.9 µM)
MIC Enterococcus faecium (GC 2243) (Enterococcus sp.; strain GC 2243): 64 µg/mL (≈ 45.8 µM)
MIC Enterococcus faecalis (GC 4552) (Enterococcus sp.): 64 µg/mL (≈ 45.8 µM)
MIC Enterococcus faecalis (GC 4553) (Enterococcus sp.; strain GC 4553): 64 µg/mL (≈ 45.8 µM)
MIC Enterococcus faecalis (GC 4554) (Enterococcus sp.; strain GC 4554): 64 µg/mL (≈ 45.8 µM)
MIC Enterococcus faecium (GC 4556) (Enterococcus sp.; strain GC 4556): 64 µg/mL (≈ 45.8 µM)
MIC Enterococcus faecium (GC 4557) (Enterococcus sp.; strain GC 4557): 8 µg/mL (≈ 5.72 µM)
MIC Enterococcus avium (GC 4558) (Enterococcus sp.; strain GC 4558): 64 µg/mL (≈ 45.8 µM)
MIC Coagulase Negative Staphylococcus (GC 4547) (Staphylococcus sp.): 4 µg/mL (≈ 2.86 µM)
MIC Coagulase Negative Staphylococcus (GC 4548) (Staphylococcus sp.): 4 µg/mL (≈ 2.86 µM)
MIC Coagulase Negative Staphylococcus (GC 4549) (Staphylococcus sp.): 4 µg/mL (≈ 2.86 µM)
MIC Coagulase Negative Staphylococcus (GC 4551) (Staphylococcus sp.): 8 µg/mL (≈ 5.72 µM)
MIC Staphylococcus aureus (ATCC 29213) (Staphylococcus sp.): 8 µg/mL (≈ 5.72 µM)
MIC Staphylococcus aureus (GC 1131) (Staphylococcus sp.): 8 µg/mL (≈ 5.72 µM)
MIC Staphylococcus aureus (GC 4541) (Staphylococcus sp.): 8 µg/mL (≈ 5.72 µM)
MIC Staphylococcus aureus (GC 4542) (Staphylococcus sp.): 8 µg/mL (≈ 5.72 µM)
MIC Staphylococcus aureus (GC 4544) (Staphylococcus sp.): 8 µg/mL (≈ 5.72 µM)
MIC Staphylococcus aureus (GC 4545) (Staphylococcus sp.): 4 µg/mL (≈ 2.86 µM)
MIC Staphylococcus aureus-SMITH (GC 4543) (Staphylococcus sp.): 8 µg/mL (≈ 5.72 µM)
MIC Staphylococcus aureus (ATCC 29213) (Staphylococcus sp.; strain ATCC 29213): 8 µg/mL (≈ 5.72 µM)
MIC Staphylococcus aureus (GC 1131) (Staphylococcus sp.; strain GC 1131): 8 µg/mL (≈ 5.72 µM)
MIC Staphylococcus aureus (GC 4541) (Staphylococcus sp.; strain GC 4541): 8 µg/mL (≈ 5.72 µM)
MIC Staphylococcus aureus (GC 4542) (Staphylococcus sp.; strain GC 4542): 8 µg/mL (≈ 5.72 µM)
MIC Staphylococcus aureus (GC 4544) (Staphylococcus sp.; strain GC 4544): 8 µg/mL (≈ 5.72 µM)
MIC Staphylococcus aureus (GC 4545) (Staphylococcus sp.; strain GC 4545): 4 µg/mL (≈ 2.86 µM)
MIC Coagulase Negative Staphylococcus (GC 4547) (Staphylococcus sp.; strain GC 4547): 4 µg/mL (≈ 2.86 µM)
MIC Coagulase Negative Staphylococcus (GC 4548) (Staphylococcus sp.; strain GC 4548): 4 µg/mL (≈ 2.86 µM)
MIC Coagulase Negative Staphylococcus (GC 4549) (Staphylococcus sp.; strain GC 4549): 4 µg/mL (≈ 2.86 µM)
MIC Coagulase Negative Staphylococcus (GC 4551) (Staphylococcus sp.; strain GC 4551): 8 µg/mL (≈ 5.72 µM)
MIC Staphylococcus aureus-SMITH (GC 4543) (Staphylococcus sp.; strain SMITH GC 4543): 8 µg/mL (≈ 5.72 µM)
MIC Streptococcus agalactiae (GC 4564) (Streptococcus sp.): 4 µg/mL (≈ 2.86 µM)
MIC Streptococcus pyogenes (ID-3187) (Streptococcus sp.): 4 µg/mL (≈ 2.86 µM)
SMILES: CC(C)CC(=O)OC1C(O)C(CO)OC(OC2C(CO)OC(Oc3ccc(CC4NC(=O)C(C(C)c5cccc(F)c5)NC(=O)CNC(=O)C(CO)NC(=O)C(C(O)C5CNC(=N)N5C5OC(CO)C(O)C(O)C5O)NC(=O)C(C(O)C5CNC(=N)N5)NC4=O)cc3)C(O)C2O)C1O (stereo not drawn) [Example 264b, Cyclo[glycyl-3-fluoro-β-methylphenylalanyl-O-[4-O-[3-O-(3-methylbutanoyl)hexopyranosyl]-hexopyranosyl]tyrosyl-3-(2-iminoimidazolidin-4-yl)seryl-3-(3-hexopyranosyl-2-iminoimidazolidin-4-yl)serylseryl]]
MIC Staphylococcus haemolyticus (GC 4546) (Staphylococcus sp.): 4 µg/mL (≈ 2.86 µM)
MIC Staphylococcus haemolyticus (GC 4546) (Staphylococcus sp.; strain GC 4546): 4 µg/mL (≈ 2.86 µM)
